According to patent publication US20110098180A1, “Herbicide-Resistant Plants, And Polynucleotides And Methods For Providing Same” (United States Department of Agriculture, priority 2002, published 2011):

Experiments:
Experiment in all cases: Cross resistance to bleaching herbicides, in vitro PDS inhibition, non-His-tagged (Table 2)
[1] = test system: hydrilla PDS Arg^304 → Serine; format: biochemical, Hydrilla verticillata; conditions: Serine at 304 relative to Arginine; Table 2
Procedure: (§1) The expression constructs in Table 2 were derived from an original clone of the susceptible PDS gene from Hydrilla and then the Arg^304 was mutated to the listed amino acid. Expression was under the control of the lac promoter but in frame with the initiation codon of the LacZalpha-ccdB gene in the pCR4-TOPO vector (Invitrogen Inc., CA, Cat. #K4575-01).
(§2) All mutagenesis was performed, unless stated otherwise, using the TOPO-vector containing the wildtype (H4) PDS-sequence, which was extracted from an overnight culture with the Qiagen Plasmid Prep Kit as described above. The amount of the extracted plasmid was diluted to 10 ng/μl and used as template in a mutagenesis-procedure using the QuikChange Site-directed Mutagenesis Kit (Stratagene, Calif., #200518). The design of the mutagenesis-primers was conducted according to the manufacturers protocol to enable the specific change of Arg^304-codon to code for the desired amino acid. Primers (purchased from MWG-Biotech) and their introduced amino acid change are listed below with the changed codon underlined:
(§3) The reactions were performed according to the manufacturers protocol. Reactions were set up in MicroAmp-tubes on ice with 38 μl ddH2O, 5 μl 10× reaction buffer, 2 μl plasmid (10 ng/μl), 1.25 μl forward-mutagenesis primer (100 ng/μl), 1.25 μl of reverse mutagenesis primer (100 ng/μl), 1 μl dNTP-mix and 1 μl PfuTurboDNA polymerase (2.5 U/μl). The reactions were placed in a PE 9700 thermal cycler and heated to 95° C. for 30 sec followed by 12 rounds at 95° C. for 30 sec, 55° C. for 1 min and 68° C. for 12 min. The PCR was followed by a DpnI-digestion and transformation in XL1-Blue supercompetent cells as described in the manual. 4-6 resulting colonies were grown overnight in LB-medium with kanamycin and plasmid DNA was isolated as described above. The plasmid was used as template for sequencing with M13 and internal PDS-primers as described above on a LiCOR-system. Sequences were assembled and analyzed using Seqman. Introduced mutations were identified and plasmids carrying the desired mutation(s) were transferred into competent TOP10-cells, using the transformation protocol from the TOPO TA Cloning Kit. Resulting colonies were grown overnight in Wu-broth with kanamycin, aliquoted and stored at −80° C. until further use. 1 ml of Wu-cultures was used to start 1-L LB-cultures with kanamycin as described before, to express active PDS-enzyme for testing as described.
(§4) Phytoene desaturase activity and its inhibition by herbicides was determined using an in vitro system using components derived from the in vivo production of phytoene and phytoene desaturase proteins. All mutations described in Examples 3 and 4 were tested. […] The clones were used for the heterologous expression of Hydrilla-PDS-enzyme. In particular, bacterial cultures were grown from single colonies overnight in Wu-broth (6.27 g/L K2HPO4, 1.8 g/L KH2PO4, 0.5 g/L Na-citrate, 0.9 g/L (NH4)2SO4, 10 g/L tryptone, 5 g/L yeast extract, 10 g/L NaCl, 44 ml/L glycerol, 0.1 mM MgSO4, pH 7.2) with kanamycin. 1-mL was aliquoted in centrifuge tube and stored at −80° C. For expression, 1 L LB-medium with kanamycin was inoculated with 1-mL Wu-culture and grown for 24 h at 37° C. to stationary phase with shaking at 200 rpm. The cells were collected by centrifugation at 2000×g. All of the following steps were done at 4° C. unless otherwise noted. Active soluble PDS enzyme was extracted by lysing the transformed E. coli cells using a French Press at 20,000 psi in assay buffer consisting of 100 mM Tris-HCl, pH 7.2, 10 mM magnesium-chloride, 0.1 mM NADP, 0.1 mM FAD, 10 mM cysteine, 5 mM DTT, 1 mM aminocaproic acid, and 1 μg/ml leupeptin. The soluble fraction containing PDS activity was obtained by centrifugation for 10 min at 1200×g. After 24 h they were centrifuged down and used in PDS enzyme activity assays as described below.

[2] = molecular target: hydrilla PDS position 304 Arginine (wildtype) (Hydrilla verticillata, UniProt Q66PY0); format: biochemical; conditions: for R/S: Arginine at 304 (reference), Table 2; for IC50: Arginine at 304, construct in frame with LacZalpha-ccdB, non-His-tagged, read-out: I50
Procedure: as §1, §2, §3, §4

[3] = test system: hydrilla PDS Arg^304 → Cysteine; format: biochemical, Hydrilla verticillata; conditions: Cysteine at 304 relative to Arginine; Table 2
Procedure: as §1, §2, §3, §4

[4] = test system: hydrilla PDS Arg^304 → Histidine; format: biochemical, Hydrilla verticillata; conditions: Histidine at 304 relative to Arginine; Table 2
Procedure: as §1, §2, §3, §4

[5] = molecular target: hydrilla PDS Arg^304 → Cysteine (Hydrilla verticillata, UniProt Q66PY0, R304C); format: biochemical; conditions: Cysteine at 304; construct in frame with LacZalpha-ccdB, non-His-tagged; read-out: I50
Procedure: as §1, §2, §3, §4

[6] = molecular target: hydrilla PDS Arg^304 → Serine (Hydrilla verticillata, UniProt Q66PY0, R304S); format: biochemical; conditions: Serine at 304; construct in frame with LacZalpha-ccdB, non-His-tagged; read-out: I50
Procedure: as §1, §2, §3, §4

[7] = molecular target: hydrilla PDS Arg^304 → Histidine (Hydrilla verticillata, UniProt Q66PY0, R304H); format: biochemical; conditions: Histidine at 304; construct in frame with LacZalpha-ccdB, non-His-tagged; read-out: I50
Procedure: as §1, §2, §3, §4

[8] = molecular target: Hydrilla PDS Arg^304 → Threonine (Hydrilla verticillata, UniProt Q66PY0, R304T); format: biochemical; conditions: Threonine at 304; construct in frame with LacZalpha-ccdB, non-His-tagged; read-out: I50
Procedure: as §1, §2, §3, §4

[9] = test system: Hydrilla PDS Arg^304 → Threonine; format: biochemical, Hydrilla verticillata; conditions: Threonine at 304 relative to Arginine; Table 2
Procedure: as §1, §2, §3, §4

Hydrilla PDS Arg^304 → Threonine (Hydrilla verticillata, UniProt Q66PY0, R304T), sequence (Q66PY0 1-580 R304T): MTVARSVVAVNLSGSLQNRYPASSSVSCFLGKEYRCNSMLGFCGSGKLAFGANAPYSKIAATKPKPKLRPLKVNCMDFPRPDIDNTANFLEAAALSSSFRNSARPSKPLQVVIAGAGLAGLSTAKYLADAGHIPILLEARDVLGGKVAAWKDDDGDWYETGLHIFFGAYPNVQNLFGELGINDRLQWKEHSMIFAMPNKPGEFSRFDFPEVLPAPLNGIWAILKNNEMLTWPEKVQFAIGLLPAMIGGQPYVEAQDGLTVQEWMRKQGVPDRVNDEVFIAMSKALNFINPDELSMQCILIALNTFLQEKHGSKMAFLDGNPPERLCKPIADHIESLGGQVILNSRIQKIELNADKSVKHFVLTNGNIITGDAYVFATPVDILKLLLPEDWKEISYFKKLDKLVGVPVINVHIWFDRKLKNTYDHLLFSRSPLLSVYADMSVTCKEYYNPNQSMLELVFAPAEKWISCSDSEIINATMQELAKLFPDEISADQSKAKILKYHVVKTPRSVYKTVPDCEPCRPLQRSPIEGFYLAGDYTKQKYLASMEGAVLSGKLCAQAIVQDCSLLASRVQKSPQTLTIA
hydrilla PDS Arg^304 → Histidine (Hydrilla verticillata, UniProt Q66PY0, R304H), sequence (Q66PY0 1-580 R304H): as the sequence (Q66PY0 1-580 R304T) above, with T304H counted along it
hydrilla PDS Arg^304 → Serine (Hydrilla verticillata, UniProt Q66PY0, R304S), sequence (Q66PY0 1-580 R304S): as the sequence (Q66PY0 1-580 R304T) above, with T304S counted along it
hydrilla PDS Arg^304 → Cysteine (Hydrilla verticillata, UniProt Q66PY0, R304C), sequence (Q66PY0 1-580 R304C): as the sequence (Q66PY0 1-580 R304T) above, with T304C counted along it
hydrilla PDS position 304 Arginine (wildtype), sequence (Q66PY0 1-580): as the sequence (Q66PY0 1-580 R304T) above, with T304R counted along it

Row | Compound | R/S [1] | R/S [2] | IC50 [2] [µM] | R/S [3] | R/S [4] | IC50 [5] [µM] | IC50 [6] [µM] | IC50 [7] [µM] | IC50 [8] [µM] | R/S [9]
1 | O=C1C(Cl)C(CCl)CN1c1cccc(C(F)(F)F)c1 (centres unmarked) [Fluorochloridone] | 1.9 | 1 | 12.2 | 3.6 | 1.1 | 44.3 | 23 | 14 | 52 | 4.3
2 | CNc1cnn(-c2cccc(C(F)(F)F)c2)c(=O)c1Cl [Norflurazon] | 17.7 |  | 3.1 | 28.8 | 1.6 | 89.4 | 54.9 | 5 | 161 | 52.0
3 | CNC1=C(c2cccc(C(F)(F)F)c2)C(=O)C(c2ccccc2)O1 (centres unmarked) [Flurtamone] | 2.1 | 1 | 2.8 | 1.9 | 1.2 | 5.3 | 5.9 | 3.3 | 8.1 | 2.9
4 | CCC(Oc1ccc(F)c(C(F)(F)F)c1)C(=O)NCc1ccccc1 (centres unmarked) [Beflubutamid] | 0.6 | 1 | 4.3 | 0.8 | 0.7 | 3.5 | 2.6 | 3 | 1.2 | 0.3
5 | O=C(Nc1ccc(F)cc1)c1cccc(Oc2cccc(C(F)(F)F)c2)n1 [Piconilafen, Picolinafen] | 0.4 |  | 5.6 | 0.4 | 0.5 | 2.4 |  | 3 | 2.7 | 0.5
6 | Fluridone | 5.5 | 1 |  | 3.2 | 2.8 |  |  |  |  | 10.0
7 | O=C(Nc1ccc(F)cc1F)c1cccnc1Oc1cccc(C(F)(F)F)c1 [Diflufenican] | 0.2 | 1 | 5.8 | 0.4 | 0.4 | 2.1 | 1.1 | 2 | 1 | 0.2
